Results: patent publication US10793557B2, “Sting agonist compounds” (Merck Sharp & Dohme Corp., priority 2018, dated 2020)

Tests used:
full-length WT STING = target: T1, full-length WT STING (Homo sapiens, UniProt Q86WV6, H232R); experiment: 3H-cGAMP filtration binding assay (WT STING); conditions: competition with tritiated cGAMP, WT STING membrane
T1 construct: AviTag (after gg linker) (C); HRV3C cleavage site (after gs linker) (C); HIS8 (C); made in house; host or cells: Trichoplusia ni (Hi-Five) insect cells infected with baculovirus (virus generated and amplified in Sf21 cells); used as a washed membrane preparation
Method: (§1) The ability of compounds to bind STING is quantified by their ability to compete with tritiated cGAMP ligand for human STING receptor membrane using a radioactive filter-binding assay. The binding assay employs STING receptor obtained from Trichoplusia ni cell membranes (T. ni; Expression Systems, cat #94-002F, www.expressionsystems.com) overexpressing full-length WT STING and tritiated cGAMP ligand.
The basic WT STING filtration assay protocol is as follows:
16 nM of [^3H] c-GAMP ligand was prepared by diluting into assay buffer, and 50 uL of this working stock was manually added to each well of the assay plate. After ligand addition, 2 uL of either titrated test compound, DMSO control (Sigma #276855), or cold cGAMP control was added to the appropriate wells using a BIOMEK FX. The serially titrated compound was prepared on a Hamilton STARPlus CORE in a 96-well plate (Greiner, #651201) using a 1:3 ten-point dose response format. Following compound addition, a 2.2 ug/ml working concentration of STING membrane (SEQ. ID. No. 3) was prepared by diluting concentrated membrane into assay buffer (1×PBS; Invitrogen # SH30028.02) and douncing 7× using a manual tissue homogenizer (Wheaton, #357546). 148 uL of this prepared membrane was then manually added to each well of a 96-well deep-well polypropylene plate (Fisher Scientific, #12-566-121). Compound, ligand, and membrane then incubated for 60 min at RT before the contents of each assay plate were filtered through a 96-well GF/B filter plate (PerkinElmer, #6005250) using a TOMTEC MACH III Cell Harvester equipped with 20 mM HEPES buffer (Fisher Scientific, # BP299500). The filter plates were then dried at 55° C. for 30 min using a pressurized VWR oven before 30 uL of ULTIMA GOLD F scintillate was added to each well. Tritium levels for each reaction well were then measured using a PerkinElmer TopCount plate reader.
(§2) After normalization to controls, the percent activity for each compound concentration was calculated by measuring the amount of remaining radioactivity. The plot of percent activity versus the log of compound concentration was fit with a 4-parameter dose response equation to calculate EC50 values.

full-length HAQ STING = target: T2, full-length HAQ STING (Homo sapiens, UniProt Q86WV6, G230A/H232R/R293Q/R71H); experiment: 3H-cGAMP filtration binding assay (HAQ STING); conditions: competition with tritiated cGAMP, HAQ STING membrane
T2 construct: AviTag (after GG linker) (C); HRV3C cleavage site (after GS linker) (C); HIS8 (C); made in house; host or cells: Trichoplusia ni (Hi-Five) insect cells infected with baculovirus (virus generated and amplified in Sf21 cells); used as a washed membrane preparation
Source text: The ability of compounds to bind STING is quantified by the ability to compete with tritiated cGAMP ligand for human STING receptor membrane using a radioactive filter-binding assay. The binding assay employs STING receptor obtained from Hi-Five cell membranes overexpressing full-length HAQ STING prepared in-house and tritiated cGAMP ligand also purified in-house.
as §1, with “HAQ” for “WT”
The basic HAQ STING filtration assay protocol is as follows:
The compounds were serially titrated by the Hamilton STARPlus CORE in a 96-well plate (Greiner, #651201) using a 1:3 ten-point dose response format. After compound preparation, a 2.2 ug/ml working concentration of STING membrane (SEQ. ID. No. 1) was prepared by diluting concentrated membrane into assay buffer (1×PBS; Invitrogen # SH30028.02) and douncing 7× using a manual tissue homogenizer (Wheaton, #357546). 148 uL of prepared membrane was then manually added to each well of a 96-well deep-well polypropylene plate (Fisher Scientific, #12-566-121). Following membrane addition, 2 uL of either titrated test compound, DMSO control (Sigma #276855), or cold cGAMP control was added to the appropriate wells using a BIOMEK FX. Compound and membrane then preincubated for 60 min at RT to allow compound binding to equilibrate. Following equilibration, 8 nM of [^3H]c-GAMP ligand was prepared by diluting into assay buffer, and 50 uL of this working stock was then manually added to each well of the assay plate. Plates were then incubated at RT for 60 min, and the contents of each assay plate were then filtered through a 96-well GF/B filter plate (PerkinElmer, #6005250) using a TOMTEC MACH III Cell Harvester equipped with 20 mM HEPES buffer (Fisher Scientific, # BP299500). The filter plates were then dried at 55° C. for 30 min using a pressurized oven before 30 uL of ULTIMA GOLD F scintillate was added to each well. Tritium levels for each reaction well were then measured using a PerkinElmer TopCount plate reader.
as §2

[1] = system: secretion of interferon-beta from THP1 cells; experiment: IFN-β secretion in THP1 cell culture (5 h); assay type: cell-based; conditions: Homo sapiens, THP-1, 5 h, 30 uM cGAMP = 100%; for activation at 3 µM: compound at 3 uM, read-out: % Effect relative to 2′3′-cGAMP (@ 3 uM); for activation at 30 µM: compound at 30 μM, read-out: % Effect at 30 μM relative to 2′3′-cGAMP
Method: The ability of compounds to stimulate the secretion of interferon-beta from THP1 cells was measured using a human IFN-β AlphaLISA kit (Perkin Elmer, Cat. No. AL265F). The basic protocol is as follows:
A Labcyte Echo 550 acoustic dispenser was used to transfer 120 nL of compound dissolved in DMSO into the wells of an empty, sterile 384-well microplate, (Corning, Cat. No. 3712). THP1 cells (American Type Culture Collection, Cat. No. TIB202) previously frozen in Recovery Medium (Life Technologies, Cat. No. 12648-010) were thawed and immediately diluted 10-fold into 37° C. assay medium (RPMI 1640+L-Glutamine & phenol red, Life Technologies, Cat. No. 11875-085; 0.5% heat inactivated fetal bovine serum, Sigma Aldrich, Cat. No. F4135; 1 mM Sodium Pyruvate, Life Technologies, Cat. No. 11360-070; 1× non-essential amino acids; Life Technologies, Cat. No. 11140-050). The cell viability and count was ascertained using a Beckman Coulter V-Cell XR cell counter. The cells suspension was centrifuged at 200×g for 5 min at RT. Cells were resuspended to a density of 0.8×10^6/mL in 37° C. assay medium. Subsequent liquid transfers were performed using either a Matrix electronic multichannel pipette or an Agilent Bravo Automated Liquid Handling Platform.
The assay was started by dispensing 40 μL of the previously prepared cell suspension into the wells of the plate containing compounds. After 5 h incubation at 37° C., 5% CO2 in a humidified atmosphere, the plate of cells and compounds was centrifuged at 200×g for 5 min at RT. From each well, 5 μL of supernatant was transferred into corresponding wells of a white 384-well plate (Perkin Elmer, Cat. No. 6005620). To these supernatant-containing wells was added 10 μL of 5× Anti-Analyte Acceptor beads (50 μg/mL of AlphaLISA HiBlock Buffer) and incubated for 30 min at RT while shaking on an orbital plate shaker. To each well was added 10 μL of 5× Biotinylated Antibody Anti-analyte (5 nM in AlphaLISA HiBlock Buffer) and incubated on an orbital plate shaker for 60 min at RT or overnight at 4° C. To each well was added 25 μL of 2× SA-Donor beads (80 μg/mL in AlphaLISA HiBlock Buffer) and incubated for 30-45 min at RT in the dark while shaking on an orbital plate shaker. The plate was then read on a Perkin Elmer Envision (λex=680 nm, […]). The percent effect of the AlphaLISA signal at each compound concentration was calculated based on 30 uM cGAMP positive controls and 0.3% DMSO negative controls. The plot of percent effect versus the log of compound concentration was fit with a 4-parameter concentration response equation to calculate EC50 values. The test compounds were tested at concentrations 30000, 10000, 3333, 1111, 370.4, 123.4, 41.2, 13.7, 4.6, and 1.5 nM with 0.3% residual DMSO. The control compound, cGAMP was tested at concentrations 100000, 33333, 11111, 3704, 1235, 412, 137, 46, and 15 nM with 0.3% residual DMSO.
Compounds of the disclosure were evaluated for IFN-β secretion in THP1 cell culture as described above. The following table tabulates the biological data for these compounds as percent activation relative to 2′3′-cGAMP at the 30 µM concentration.

T2 sequence (Q86WV6 with tags, fused parts or gaps R71H/G230A/H232R/R293Q): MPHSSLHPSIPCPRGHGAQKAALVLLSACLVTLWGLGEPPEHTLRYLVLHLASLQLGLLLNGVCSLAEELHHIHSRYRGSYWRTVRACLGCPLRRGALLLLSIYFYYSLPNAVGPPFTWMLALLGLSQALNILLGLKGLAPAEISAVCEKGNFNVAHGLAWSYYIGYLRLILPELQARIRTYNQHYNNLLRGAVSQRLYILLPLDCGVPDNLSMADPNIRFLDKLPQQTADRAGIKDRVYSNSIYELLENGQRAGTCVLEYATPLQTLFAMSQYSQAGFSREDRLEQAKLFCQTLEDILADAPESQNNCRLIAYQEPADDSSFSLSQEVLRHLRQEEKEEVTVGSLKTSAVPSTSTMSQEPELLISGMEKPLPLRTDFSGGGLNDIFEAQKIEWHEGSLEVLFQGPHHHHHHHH
T1 sequence (Q86WV6 with tags, fused parts or gaps H232R): as the sequence (Q86WV6 with tags, fused parts or gaps R71H/G230A/H232R/R293Q) above, with H71R, A230G, Q293R counted along it

## COc1cc2sc(C(=O)C[C@H](C)C(=O)O)cc2c(F)c1OCC(C)(C)COc1c(OC)cc2sc(C(=O)C[C@H](C)C(=O)O)cc2c1F [Example 143, (2S,2′S)-4,4′-(((2,2-dimethylpropane-1,3-diyl)bis(oxy))bis(4-fluoro-6-methoxybenzo[b]thiophene-5,2-diyl))bis(2-methyl-4-oxobutanoic acid)]
full-length WT STING
  EC50: 1450 nM
full-length HAQ STING
  EC50: 75 nM
[1]
  activation at 3 µM: 26%

## COc1cc2sc(C(=O)C[C@H](C)C(=O)O)cc2c(F)c1OCCCCOc1c(OC)cc2sc(C(=O)C[C@H](C)C(=O)O)cc2c1Br [Example 131, (S)-4-(5-(4-((4-bromo-2-((S)-3-carboxybutanoyl)-6-methoxybenzo[b]thiophen-5-yl)oxy)butoxy)-4-fluoro-6-methoxybenzo[b]thiophen-2-yl)-2-methyl-4-oxobutanoic acid]
full-length WT STING
  EC50: 242 nM
full-length HAQ STING
  EC50: 25 nM
[1]
  activation at 3 µM: 38%

## COc1cc2sc(C(=O)C[C@H](C)C(=O)O)cc2cc1OCCCOc1c(OC)cc2sc(C(=O)C[C@H](C)C(=O)NS(C)(=O)=O)cc2c1F [Example 179, (S)-4-(5-(3-((4-fluoro-6-methoxy-2-((S)-3-methyl-4-(methylsulfonamido)-4-oxobutanoyl)-benzo[b]thiophen-5-yl)oxy)propoxy)-6-methoxybenzo[b]thiophen-2-yl)-2-methyl-4-oxobutanoic acid]
full-length WT STING
  EC50: 1 nM
full-length HAQ STING
  EC50: 1 nM
[1]
  activation at 30 µM: 79%

## COc1cc2sc(C(=O)C[C@H](C)C(=O)O)cc2cc1OCCOc1cc2sc(C(=O)C[C@H](C)C(=O)O)cc2cc1OC (racemic) [Example 57, rac-(R)-4-(5-(2-((2-((R)-3-carboxybutanoyl)-5-methoxybenzo[b]thiophen-6-yl)oxy)ethoxy)-6-methoxybenzo[b]thiophen-2-yl)-2-methyl-4-oxobutanoic acid]
full-length WT STING
  EC50: 398 nM
full-length HAQ STING
  EC50: 92 nM
[1]
  activation at 30 µM: 15%

## COc1cc2sc(C(=O)C[C@H](C)C(=O)O)cc2cc1OCCOc1cc2cc(C(=O)C[C@H](C)C(=O)O)sc2cc1OC [Example 76, (2S,2′S)-4,4′-((ethane-1,2-diylbis(oxy))bis(6-methoxybenzo[b]thiophene-5,2-diyl))bis(2-methyl-4-oxobutanoic acid)]
full-length WT STING
  EC50: 56 nM
full-length HAQ STING
  EC50: 22 nM
[1]
  activation at 30 µM: 44%

## COc1cc2sc(C(=O)C[C@H](C)C(=O)O)cc2c(F)c1CCCOc1c(OC)cc2sc(CCC(C)(C)C(=O)O)cc2c1F [Example 114, (S)-4-(5-(3-((2-(3-carboxy-3-methylbutyl)-4-fluoro-6-methoxybenzo[b]thiophen-5-yl)oxy)propyl)-4-fluoro-6-methoxybenzo[b]thiophen-2-yl)-2-methyl-4-oxobutanoic acid]
full-length WT STING
  EC50: 264 nM
full-length HAQ STING
  EC50: 21 nM
[1]
  activation at 30 µM: 57%

## COc1cc2sc(C(=O)CC(C)(C)C(=O)O)cc2c(F)c1OCCCOc1c(OC)cc2sc(C(=O)CC(C)(C)C(=O)O)cc2c1F [Example 165, 4,4′-((propane-1,3-diylbis(oxy))bis(4-fluoro-6-methoxybenzo[b]thiophene-5,2-diyl))bis(2,2-dimethyl-4-oxobutanoic acid)]
full-length WT STING
  EC50: 3 nM
full-length HAQ STING
  EC50: 2 nM
[1]
  activation at 30 µM: 21%

## COc1cc2sc(C(=O)CCC(=O)O)cc2cc1OCCOc1ccc2sc(C(=O)CCC(=O)O)cc2c1 [Example 11, 4-(5-(2-((2-(3-carboxypropanoyl)-6-methoxybenzo [b]thiophen-5-yl)oxy)ethoxy)benzo[b]thiophen-2-yl)-4-oxobutanoic acid]
full-length WT STING
  EC50: 4560 nM
full-length HAQ STING
  EC50: 1760 nM
[1]
  activation at 30 µM: 7%

## COc1cc2sc(C(=O)C[C@H](C)C(=O)O)cc2c(Cl)c1OCCCOc1c(OC)cc2sc(C(=O)C[C@H](C)C(=O)O)cc2c1Cl [Example 132, (2S,2′S)-4,4′-(5,5′-(propane-1,3-diylbis(oxy))bis(4-chloro-6-methoxybenzo[b]thiophene-5,2-diyl))bis(2-methyl-4-oxobutanoic acid)]
full-length WT STING
  EC50: 10 nM
full-length HAQ STING
  EC50: 3 nM
[1]
  activation at 30 µM: 131%
